Test results taken from PubChem BioAssay (NCI).
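Method: 48-hour compound exposure of cells in 96-well plates, five concentrations, linear interpolation of endpoints. GI50 is the concentration that inhibits growth by half. At the TGI there is no net growth.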

Tests used:
Test in all cases: NCI-60 cell line screen, 48 h
MOLT-4 leukemia = test system: MOLT-4 leukemia
SF-539 CNS = test system: SF-539 CNS
DLD-1 colon = test system: DLD-1 colon
DMS 114 small cell lung = test system: DMS 114 small cell lung
DMS 273 small cell lung = test system: DMS 273 small cell lung
HOP-18 NSCLC = test system: HOP-18 NSCLC
LXFL 529 NSCLC = test system: LXFL 529 NSCLC
M19-MEL melanoma = test system: M19-MEL melanoma
KM20L2 colon = test system: KM20L2 colon
SNB-78 CNS = test system: SNB-78 CNS
XF 498 CNS = test system: XF 498 CNS
RXF-631 renal = test system: RXF-631 renal

SMILES | TGI (MOLT-4 leukemia) [µM] | TGI (SF-539 CNS) [µM] | also measured
CC(C)=C[C@@H]1C[C@H](C)c2c(O)cc(C)c3c2C1=C(C)C(=O)C3=O | > 100 | 32.3 | –
O=C(Nc1sccc1S(=O)(=O)c1ccc(Cl)cc1)C(F)(F)F | 41.1 | 93.7 | –
O=C(/C=C\c1ccccc1)Oc1ccc(/C=C2\CCCCC2=O)cc1 | 16.5 | > 100 | –
Cc1nc(-c2cc3c(ccc4ccccc43)oc2=O)cc2c1c(=O)oc1ccc3ccccc3c12 | > 100 | > 100 | –
O=C1Oc2ccccc2C(=O)/C1=C/N1C(=O)N/C(=C\c2cccc(O)c2)C1=O | > 100 | > 100 | –
COc1ccc(C2CC(=O)CC(c3ccc(OC)cc3)C23C(=O)NC(=S)NC3=O)cc1 (stereo unspecified) | > 100 | > 100 | –
COc1ccc(/C=C2\SC(c3ccc(OC)cc3)N(NC(=O)Cc3ccccc3)C2=O)cc1 (stereo unspecified) | > 100 | > 100 | TGI (DLD-1 colon): > 100 µM; TGI (DMS 114 small cell lung): > 100 µM; TGI (DMS 273 small cell lung): > 100 µM; TGI (HOP-18 NSCLC): > 100 µM; TGI (LXFL 529 NSCLC): > 100 µM; TGI (M19-MEL melanoma): > 100 µM
Cc1cc(S(=O)(=O)n2ccnc2Oc2ccccc2)c(SSc2cc(Cl)c(C)cc2S(=O)(=O)n2ccnc2Oc2ccccc2)cc1Cl | – | > 100 | –
CN(C)/C=C(\C(=O)c1ccccc1)n1nc(-c2ccccc2)cc1-c1ccccc1 | > 10 | > 10 | –
CN1CCCC1=NC#N | > 100 | > 100 | –
COc1ccc(OC)c(-c2nc3ccccc3c(=O)[nH]2)c1 | > 100 | > 100 | –
Cn1c(=O)c2c(nc(N)n2C2OC(CO)C(O)C2O)n(C)c1=O (stereo unspecified) | > 100 | > 100 | –
CN1C(=O)[C@@H]2N(CSC2(C)C)C1=S | > 100 | > 100 | –
CC(C)c1c(O[Si](C(C)C)(C(C)C)C(C)C)c2c3c(ccc4c3c1OC4(C)C)C(C)CC2 (stereo unspecified) | > 100 | > 100 | –
O=C1c2cscc2C(=O)C1(O)O | 57.8 | > 100 | –
CCOC(=O)CCC(NC(=O)c1ccc(Nc2nc3ccccc3n3cccc23)cc1)C(=O)OCC (stereo unspecified) | 82.8 | 34.6 | –
COc1cc(Br)cc2nc(-c3cccs3)oc12 | > 100 | > 100 | –
CC1(c2nc3ccccc3[nH]2)CCC(C(N)=O)C(C)(C)O1 (stereo unspecified) | > 100 | > 100 | –

SMILES | TGI (MOLT-4 leukemia) [µM] | TGI (SF-539 CNS) [µM] | also measured
C/C=C/C(C#N)(Cc1ccccc1)OP1(=O)OC(c2ccccc2)C(C)N1C (stereo unspecified) | 78.4 | > 100 | –
COc1ccc2c(c1)CC[C@@H]1[C@@H]2CC[C@]2(C)C(=O)/C(=C/c3ccncc3)C[C@@H]12 | > 100 | 55.1 | –
CN1C(=O)c2c(c3c4ccccc4n(C4OC(CO)C(O)C(O)C4O)c3c3[nH]c4ccccc4c23)C1=O (stereo unspecified) | 3.57 | 4.7 | –
Cc1ccc2c(c1)SC(c1cc3c(cc1Br)OCO3)S2 (stereo unspecified) | > 31.6 | > 31.6 | TGI (DLD-1 colon): > 31.6 µM; TGI (DMS 114 small cell lung): > 31.6 µM; TGI (DMS 273 small cell lung): > 31.6 µM; TGI (HOP-18 NSCLC): > 31.6 µM; TGI (KM20L2 colon): > 31.6 µM; TGI (LXFL 529 NSCLC): > 31.6 µM; TGI (M19-MEL melanoma): > 31.6 µM; TGI (SNB-78 CNS): > 31.6 µM; TGI (XF 498 CNS): > 100 µM
O=C(Nc1nc2ccccc2n1Cc1ccc(Cl)cc1)NC12CC3CC(CC(C3)C1)C2 | > 100 | 53.4 | TGI (DLD-1 colon): > 100 µM; TGI (DMS 114 small cell lung): 90.8 µM; TGI (DMS 273 small cell lung): 34.7 µM; TGI (HOP-18 NSCLC): 85.4 µM; TGI (KM20L2 colon): > 100 µM; TGI (LXFL 529 NSCLC): 72 µM; TGI (M19-MEL melanoma): > 100 µM; TGI (XF 498 CNS): 53.2 µM
O=C(Cc1ccccc1)NNc1nc(NNC(=O)c2ccncc2)nc(Nc2ccccc2)n1 | > 10 | > 10 | –
Nc1ccc2cc3[nH]c4cc(N)ccc4c3nc2c1 | 6.76 | 1.4 | –
COc1cc([C@@H]2c3cc4c(cc3[C@@H](NCc3ccccc3)C3COC(=O)[C@@H]32)OCO4)cc(OC)c1O (stereo partly specified) | 13 | 26.7 | TGI (DLD-1 colon): > 100 µM; TGI (DMS 114 small cell lung): > 64.5 µM; TGI (DMS 273 small cell lung): 36.7 µM; TGI (KM20L2 colon): 85.6 µM; TGI (LXFL 529 NSCLC): > 100 µM; TGI (M19-MEL melanoma): > 100 µM; TGI (RXF-631 renal): 30.2 µM; TGI (SNB-78 CNS): > 100 µM; TGI (XF 498 CNS): 41 µM
CSCCCNC(=O)c1csc(-c2csc(CCN)n2)n1 | > 100 | > 100 | –
O=C1/C(=C/c2ccccc2)N=C(c2ccccc2)N1C1Nc2cc3c(cc2S1)NC(N1C(=O)/C(=C/c2ccccc2)N=C1c1ccccc1)S3 (stereo unspecified) | 88.2 | > 100 | –
CCCc1c(C(=O)OCC)[nH]c(-c2ccc(-c3[nH]c(C(=O)OCC)c(CCC)c3C(=O)OCC)o2)c1C(=O)OCC | > 100 | > 100 | TGI (DLD-1 colon): > 100 µM; TGI (DMS 114 small cell lung): > 100 µM; TGI (DMS 273 small cell lung): > 100 µM; TGI (HOP-18 NSCLC): > 100 µM; TGI (KM20L2 colon): > 100 µM; TGI (LXFL 529 NSCLC): > 100 µM; TGI (M19-MEL melanoma): > 100 µM; TGI (SNB-78 CNS): > 100 µM; TGI (XF 498 CNS): > 100 µM
Cc1cc(C)n(-c2nc3ccccc3c(=O)n2-c2ccccc2)n1 | > 100 | > 100 | –
COc1c(C)c(C/C=C(\C)CCCCO)c(OC)c(OC)c1OC | > 100 | > 100 | –
c1ccc(N=c2sc3ccccc3sc2=Nc2ccccc2)cc1 | > 100 | 3.42 | –
CC#Cc1cc2c(cc1O)CC[C@@H]1[C@@H]2CC[C@]2(C)[C@@H](O)CC[C@@H]12 | 17.2 | 6.04 | GI50 (SF-539 CNS): 0.939 µM
COc1ccc(C2=Nn3c(nc4sc(-c5ccccc5)cc4c3=O)SC2)cc1 | > 100 | > 100 | –
O=C1C[C@@H](Sc2ccccc2)C2(OCCO2)[C@H]2ON3CCC[C@@H]3[C@@H]12 | 8.7 | 19.8 | –
